Experimental data taken from patent US20240374546A1, “USES AND METHODS FOR PROMOTING INCREASED MITOCHONDRIAL MASS AND FUNCTION” (Brightseed, Inc., priority 2022, published 2024).

Test system: fatty acid oxidation (FAO)
Assay: Fatty acid oxidation assay in liver lysate
Type: in vivo, mouse
Conditions: HFD+NCT vs HFD
Experimental: FAO in liver lysate was measured according to manufacturer's instructions using a calorimetric assay kit (Cat #E-141, Biomedical Research Service Centre, State University of New York, Buffalo, NY).
The large weight difference between the HFD and HFD+NCT groups in conjunction with decreased subcutaneous and hepatic adiposity was striking. There are only two routes of fat elimination; in the stool by malabsorption, which it was ruled out (FIG. 1E) and by oxidation. Thus, it was hypothesized that NCT was inducing an increase in FAO. Quantification of FAO was done using an assay that measures NADH by the conversion of iodonitrotetrazolium (INT) to INT-Formazan mediated by the NADH-requiring enzyme diaphorase. Performing the assay in the presence and absence of added octanoyl-CoA, which is converted through fatty acid β-oxidation to acetyl-CoA with conversion of NAD+ to NADH, provides specificity for FAO. The level of fatty acid oxidation is determined as the INT-formazan level in the presence of octanoyl CoA minus the level in the absence of octanoyl CoA.

Structure (SMILES): O=C(/C=C/c1ccc(O)c(O)c1)NCCc1ccc(O)cc1 [NCT, N-transcaffeoyltyramine]
- FAO activity in the presence of octanoyl CoA: increase
- baseline activity in the absence of octanoyl CoA: increase
- overall FAO activity (+octanoyl CoA minus −octanoyl CoA): unchanged
